Data from patent US7871982B2, “Lincomycin derivatives and antimicrobial agents comprising the same as active ingredient” (Meiji Seika Kaisha, Ltd., priority 2005, dated 2011).
Converted amounts (≈) assume the structure as drawn.

Tests used:
Experiment in all cases: Antimicrobial activity, MIC against pneumococci (agar dilution)
Format in all cases: cell-based
S. pneumoniae TH-662 = settings: inoculum 10^6 CFU/ml; for minimal inhibitory concentration (MIC): sensitivity disk agar-N+5% horse blood; for MIC: Streptococcus pneumoniae, TH662, sensitivity disk agar-N+5% horse blood, read-out: minimal inhibitory concentration (MIC)
Experimental: (§1) For representative compounds among lincomycin derivatives according to the present invention, the minimal inhibitory concentration (MIC, μg/ml) against various pneumococci was measured according to the method described in CHEMOTHERAPY, vol. 16, No. 1, 99, 1968. Sensitivity disk agar-N+5% horse blood was used as the medium for the measurement. The amount of bacteria inoculated was 10^6 CFU/ml.

S. pneumoniae TH-96 = settings: inoculum 10^6 CFU/ml; for minimal inhibitory concentration (MIC): sensitivity disk agar-N+5% horse blood; for MIC: Streptococcus pneumoniae, TH96, sensitivity disk agar-N+5% horse blood, read-out: minimal inhibitory concentration (MIC)
Experimental: as §1

S. pneumoniae 225 = settings: sensitivity disk agar-N+5% horse blood, inoculum 10^6 CFU/ml; for MIC: Streptococcus pneumoniae, read-out: minimal inhibitory concentration (MIC)
Experimental: as §1

S. pneumoniae PRC-206 = settings: inoculum 10^6 CFU/ml; for minimal inhibitory concentration (MIC): sensitivity disk agar-N+5% horse blood; for MIC: Streptococcus pneumoniae, PRC206, sensitivity disk agar-N+5% horse blood, read-out: minimal inhibitory concentration (MIC)
Experimental: as §1

S. pneumoniae PRC-53 = settings: inoculum 10^6 CFU/ml; for minimal inhibitory concentration (MIC): sensitivity disk agar-N+5% horse blood; for MIC: Streptococcus pneumoniae, PRC53, sensitivity disk agar-N+5% horse blood, read-out: minimal inhibitory concentration (MIC)
Experimental: as §1

S. pneumoniae DPI Type[…] = settings: for minimal inhibitory concentration (MIC): S. pneumoniae DPI Type[…], sensitivity disk agar-N+5% horse blood, inoculum 10^6 CFU/ml; for MIC: Streptococcus pneumoniae, read-out: minimal inhibitory concentration (MIC)
Experimental: as §1

S. pneumoniae IP692 = settings: sensitivity disk agar-N+5% horse blood, inoculum 10^6 CFU/ml; for MIC: Streptococcus pneumoniae, read-out: minimal inhibitory concentration (MIC)
Experimental: as §1

S. pneumoniae 1913 = settings: sensitivity disk agar-N+5% horse blood, inoculum 10^6 CFU/ml; for MIC: Streptococcus pneumoniae, read-out: minimal inhibitory concentration (MIC)
Experimental: as §1

S. pneumoniae 1820 = settings: sensitivity disk agar-N+5% horse blood, inoculum 10^6 CFU/ml; for MIC: Streptococcus pneumoniae, read-out: minimal inhibitory concentration (MIC)
Experimental: as §1

S. pneumoniae PRC0-91 = settings: inoculum 10^6 CFU/ml; for minimal inhibitory concentration (MIC): sensitivity disk agar-N+5% horse blood
Experimental: as §1

Row | SMILES | minimal inhibitory concentration (MIC) (S. pneumoniae TH-662) [µg/mL] | minimal inhibitory concentration (MIC) (S. pneumoniae TH-96) [µg/mL] | minimal inhibitory concentration (MIC) (S. pneumoniae 225) [µg/mL] | minimal inhibitory concentration (MIC) (S. pneumoniae PRC-206) [µg/mL] | minimal inhibitory concentration (MIC) (S. pneumoniae PRC-53) [µg/mL] | minimal inhibitory concentration (MIC) (S. pneumoniae DPI Type[…]) [µg/mL] | minimal inhibitory concentration (MIC) (S. pneumoniae IP692) [µg/mL] | minimal inhibitory concentration (MIC) (S. pneumoniae 1913) [µg/mL] | minimal inhibitory concentration (MIC) (S. pneumoniae 1820) [µg/mL] | minimal inhibitory concentration (MIC) (S. pneumoniae PRC0-91) [µg/mL] | MIC (S. pneumoniae TH-662) [µg/mL] | MIC (S. pneumoniae TH-96) [µg/mL] | MIC (S. pneumoniae 225) [µg/mL] | MIC (S. pneumoniae PRC-206) [µg/mL] | MIC (S. pneumoniae PRC-53) [µg/mL] | MIC (S. pneumoniae DPI Type[…]) [µg/mL] | MIC (S. pneumoniae IP692) [µg/mL] | MIC (S. pneumoniae 1913) [µg/mL] | MIC (S. pneumoniae 1820) [µg/mL] | MIC (S. pneumoniae PRC0-91; Streptococcus pneumoniae, PRC091, sensitivity disk agar-N+5% horse blood, read-out: minimal inhibitory concentration (MIC)) [µg/mL]
1 | CCCC1CC(C(=O)NC(C(C)Sc2ccc(N(C)C(=O)COC)cc2)C2OC(SC)C(O)C(O)C2O)N(C)C1 (stereo not drawn) [Compound 170, 7-Deoxy-7-epi-7-(4-(methoxy-N-methylacetamido)phenylthio)-lincomycin] | 8 (≈ 13.3 µM) | 0.13 (≈ 0.217 µM) | 128 (≈ 213 µM) | 16 (≈ 26.7 µM) | 0.13 (≈ 0.217 µM) | 0.13 (≈ 0.217 µM) | 0.13 (≈ 0.217 µM) | 0.13 (≈ 0.217 µM) | 8 (≈ 13.3 µM) | 8 (≈ 13.3 µM) |  |  |  |  |  |  |  |  |  | 
2 | CCC[C@@H]1C[C@@H](C(=O)N[C@@H]([C@H]2O[C@H](SC)[C@H](O)[C@@H](O)[C@H]2O)[C@H](C)Sc2ccc(NC(=O)CC)cn2)N(C)C1 [Compound 191, 7-Deoxy-7-epi-7-(5-(propionamido)pyridin-2-ylthio)-lincomycin] |  | 0.03 (≈ 0.0526 µM) | 32 (≈ 56.1 µM) | 8 (≈ 14 µM) | 0.03 (≈ 0.0526 µM) | 0.015 (≈ 0.0263 µM) | 0.015 (≈ 0.0263 µM) | 0.015 (≈ 0.0263 µM) | 4 (≈ 7.01 µM) | 2 (≈ 3.5 µM) |  |  |  |  |  |  |  |  |  | 
3 | CCCC1CC(C(=O)NC(C(C)Sc2nnc(NC(=O)COC)s2)C2OC(SC)C(O)C(O)C2O)N(C)C1 (stereo not drawn) [Compound 195, 7-Deoxy-7-epi-7-(5-(2-methoxyacetamido)-1,3,4-thiadiazol-2-ylthio)lincomycin] | 8 (≈ 13.5 µM) | 0.06 (≈ 0.101 µM) | 64 (≈ 108 µM) | 64 (≈ 108 µM) | 0.06 (≈ 0.101 µM) | 0.06 (≈ 0.101 µM) | 0.03 (≈ 0.0505 µM) | 0.13 (≈ 0.219 µM) | 16 (≈ 26.9 µM) | 8 (≈ 13.5 µM) |  |  |  |  |  |  |  |  |  | 
4 | CCC[C@@H]1C[C@@H](C(=O)N[C@@H]([C@H]2O[C@H](SC)[C@H](O)[C@@H](O)[C@H]2O)[C@H](C)Sc2ccc(C(=O)N3CCCC3)cc2)N(C)C1 [Compound 228, 7-Deoxy-7-epi-7-(4-(pyrrolidino-carbonyl)phenylthio)lincomycin] | 2 (≈ 3.36 µM) |  | 16 (≈ 26.9 µM) | 4 (≈ 6.71 µM) | 0.06 (≈ 0.101 µM) | 0.13 (≈ 0.218 µM) | 0.06 (≈ 0.101 µM) | 0.13 (≈ 0.218 µM) | 4 (≈ 6.71 µM) | 2 (≈ 3.36 µM) |  |  |  |  |  |  |  |  |  | 
5 | CCC[C@@H]1C[C@@H](C(=O)N[C@@H](C2OC(SC)C(O)C(O)C2O)[C@H](C)SCc2ccc(C(=O)N3CCCCC3)cc2)N(C)C1 (stereo partly drawn) [Compound 235, 7-Deoxy-7-epi-7-(4-(piperidino-carbonyl)benzylthio)lincomycin] |  |  |  |  |  |  |  |  |  |  | 1 (≈ 1.6 µM) | 0.03 (≈ 0.0481 µM) | 32 (≈ 51.3 µM) | 4 (≈ 6.41 µM) | 0.03 (≈ 0.0481 µM) | 0.015 (≈ 0.024 µM) | 0.015 (≈ 0.024 µM) | 0.03 (≈ 0.0481 µM) | 8 (≈ 12.8 µM) | 
6 | CCC[C@H]1CN[C@H](C(=O)N[C@@H]([C@H]2O[C@H](SC)[C@H](O)[C@@H](O)[C@H]2O)[C@H](C)Sc2nnc(-c3sccc3N)s2)C1 [Compound 304, 7-(5-(3-Aminothiophen-2-yl)-1,3,4-thiadiazol-2-ylthio)-1′-demethyl-7-deoxy-7-epilincomycin] | 2 (≈ 3.39 µM) | 0.13 (≈ 0.22 µM) | 16 (≈ 27.1 µM) | 4 (≈ 6.78 µM) | 0.13 (≈ 0.22 µM) | 0.13 (≈ 0.22 µM) | 0.13 (≈ 0.22 µM) | 0.13 (≈ 0.22 µM) | 4 (≈ 6.78 µM) | 2 (≈ 3.39 µM) |  |  |  |  |  |  |  |  |  | 
7 | CCC[C@@H]1CCN[C@H](C(=O)N[C@@H]([C@H]2O[C@H](SC)[C@H](O)[C@@H](O)[C@H]2O)[C@H](C)Sc2ncc(C(=O)OCC)c(N)n2)C1 [Compound 364, Methyl 7-(4-amino-5-ethoxycarbonylpyrimidin-2-ylthio)-7-deoxy-7-epi-6-N-((2S,4R)-4-propyl)pipecoloyl-1-thio-α-lincosamide] | 2 (≈ 3.4 µM) | 0.06 (≈ 0.102 µM) | 4 (≈ 6.81 µM) | 4 (≈ 6.81 µM) | 0.03 (≈ 0.051 µM) | 0.13 (≈ 0.221 µM) | 0.13 (≈ 0.221 µM) | 0.13 (≈ 0.221 µM) | 4 (≈ 6.81 µM) |  |  |  |  |  |  |  |  |  |  | 
8 | CC[C@@H]1CCN(C)[C@H](C(=O)N[C@@H]([C@H]2O[C@H](SC)[C@H](O)[C@@H](O)[C@H]2O)[C@H](C)Sc2nnc(-c3ccc(F)cc3[N+](=O)[O-])s2)C1 [Compound 396, Methyl 7-deoxy-7-epi-7-(5-(4-fluoro-2-nitrophenyl)-1,3,4-thiadiazol-2-ylthio)-6-N-((2S,4R)-1-N-methyl-4-ethyl)pipecoloyl-1-thio-α-lincosamide] | 8 (≈ 12.4 µM) | 0.015 (≈ 0.0232 µM) | >128 | 64 (≈ 99.1 µM) | 0.015 (≈ 0.0232 µM) | 0.015 (≈ 0.0232 µM) | 0.008 (≈ 0.0124 µM) | 0.008 (≈ 0.0124 µM) | 16 (≈ 24.8 µM) | 4 (≈ 6.19 µM) |  |  |  |  |  |  |  |  |  | 
9 | CCC[C@@H]1C[C@@H](C(=O)N[C@H](C2OC(SC)C(O)C(O)C2O)[C@@H](C)Sc2ccc(-c3cccnc3[N+](=O)[O-])cc2)N(C)C1 (stereo partly drawn) [Compound 446, 7-Deoxy-7-epi-7-(4-(2-nitropyridin-3-yl)phenylthio)-lincomycin] |  |  |  |  |  |  |  |  |  |  | 2 (≈ 3.22 µM) | 0.015 (≈ 0.0242 µM) | 64 (≈ 103 µM) | 8 (≈ 12.9 µM) | 0.015 (≈ 0.0242 µM) | 0.03 (≈ 0.0483 µM) | 0.03 (≈ 0.0483 µM) | 0.03 (≈ 0.0483 µM) | 4 (≈ 6.44 µM) | 4 (≈ 6.44 µM)
